Reference: publication PMC9857510, “Identification of Immune-Active Peptides in Casein Hydrolysates and Its Transport Mechanism on a Caco-2 Monolayer” (Foods, 2023)
Like-named read-outs stand apart in the source and are kept apart here. Residues, ends and D or L forms follow the SMILES beside them. No end group written: not given here.

Legend:
[1] = target: T1, Peptide transporter 1 (Pep T1) (Homo sapiens, UniProt P46059); assay: Absorption mechanism: Gly-Pro pre-incubation (carrier transport); assay type: in vitro ADME; details: 10 mM Gly-Pro, 30 min pre-incubation, 2 h transport, vs blank
T1 construct: endogenous in cells; host or cells: Caco-2
T1 sequence (P46059 1-708): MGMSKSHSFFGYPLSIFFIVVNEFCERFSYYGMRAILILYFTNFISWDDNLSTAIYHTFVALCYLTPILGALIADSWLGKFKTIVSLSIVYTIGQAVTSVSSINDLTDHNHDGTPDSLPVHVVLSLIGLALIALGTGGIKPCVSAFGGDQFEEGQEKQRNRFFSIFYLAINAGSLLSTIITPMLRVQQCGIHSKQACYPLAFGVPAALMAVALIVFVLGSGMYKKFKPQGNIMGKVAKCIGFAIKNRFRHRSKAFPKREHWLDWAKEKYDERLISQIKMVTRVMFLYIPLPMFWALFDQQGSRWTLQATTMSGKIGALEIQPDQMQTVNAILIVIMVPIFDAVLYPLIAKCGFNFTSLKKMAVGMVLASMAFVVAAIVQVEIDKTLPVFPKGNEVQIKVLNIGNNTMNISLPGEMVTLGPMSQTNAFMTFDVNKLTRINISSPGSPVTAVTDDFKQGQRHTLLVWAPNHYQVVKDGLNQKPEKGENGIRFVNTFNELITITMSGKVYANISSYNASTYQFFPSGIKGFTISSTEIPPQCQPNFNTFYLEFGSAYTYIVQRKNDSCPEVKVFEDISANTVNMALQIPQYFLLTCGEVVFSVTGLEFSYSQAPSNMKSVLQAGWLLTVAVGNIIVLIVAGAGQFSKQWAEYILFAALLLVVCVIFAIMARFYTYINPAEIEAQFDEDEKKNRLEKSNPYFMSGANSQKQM
Protocol: (§1) After 0.5 mL of 10 mM Gly-Pro, 0.1 mM sodium deoxycholate and 0.025 mM phenylarsine oxide were added to different wells on the AP side, and the Transwell plates were incubated in a CO2 incubator for 30 min and followed by the removal of these compounds. The peptides were then added to the AP side, and Hank’s Balanced Salt Solution (HBSS) buffer was added to the BL side, and samples were collected after 2 h.

[2] = test system: Caco-2 cell monolayer; assay: Absorption mechanism: phenylarsine oxide (endocytosis) and sodium deoxycholate (bypass transport) pre-incubation; assay type: in vitro ADME, human
Protocol: as §1

[3] = target: T2, MRP2 (Homo sapiens, UniProt Q92887); assay: Peptide efflux: MK-571 sodium salt pre-incubation; assay type: in vitro ADME; details: 0.05 mM MK-571 sodium salt, AP-BL, 2 h, vs blank
T2 construct: Multidrug resistance protein (MRP) and P-glycoprotein in Caco-2 cells are energy-dependent efflux transporters; endogenous in cells; host or cells: Caco-2
Protocol: (§2) In total, 0.5 mL of 0.05 mM MK-571 sodium salt, 0.1 mM verapamil, and 10 mM sodium azide were added to the AP side hole of the Transwell plate and incubated in a CO2 incubator for 30 min. After this incubation, the compounds were removed, the peptide was added to the AP side, and HBSS buffer was added to the BL side for 2 h.

[4] = target: T3, P-glycoprotein (Homo sapiens, UniProt P08183); assay: Peptide efflux: verapamil pre-incubation; assay type: in vitro ADME; details: 0.1 mM verapamil, AP-BL, 2 h, vs blank
T3 construct: Multidrug resistance protein (MRP) and P-glycoprotein in Caco-2 cells are energy-dependent efflux transporters; endogenous in cells; host or cells: Caco-2
Protocol: as §2

[5] = test system: Caco-2 cell monolayer; assay: Peptide efflux: sodium azide pre-incubation (ATP production); assay type: in vitro ADME, human; details: 10 mM sodium azide, AP-BL, 2 h, vs blank
Protocol: as §2

[6] = test system: Caco-2 cell monolayer; assay: Transport assay on Caco-2 cell monolayer (Transwell, RP-HPLC quantification)
Protocol: (§3) Reverse phase high-performance liquid chromatography (RP-HPLC) was used to analyze the composition of peptides passed through the Caco-2 cell membrane. The elution parameters were as follows: the mobile phase B was ultra-pure water containing 0.1% Trifluoroacetic acid (TFA), and mobile phase A contained acetonitrile supplemented with 0.1% TFA. Adopting a gradient elution method, in detail, at 0.01 min, mobile phase A was 5%; at 25 min, mobile phase A was 70%. The absorbance of RP-HPLC was detected at 220 nm. The peak yields of the five electroactive peptides at the concentrations of 0.5 mM, 0.2 mM, 0.1 mM, 0.05 mM, and 0.025 mM were detected. The concentration was set as the abscissa and the peak area was set as the ordinate to draw the standard curves of the different peptide segments.
(§4) Caco-2 cells were maintained in an incubator at 37 °C, with 5% CO2 and relative humidity of 90% until the number of cells accounted for 80–90% of confluency [19]. After that, the medium was added to obtain a cellular suspension with 4 × 10^5 cells/mL, which was seeded on a 12-well Transwell plate added to the AP side of the 0.5 mL cell suspension, and the Basal lateral (BL) side by adding 1.5 mL of cell culture medium after one day after the exchange, Then, the fluid was changed every other day for 6 days, and the fluid was changed every day until the culture was completed. […] The main detection indicators were: (1) cell morphology observation; (2) the cell membrane compactness using fluorescent yellow test; (3) the detection of single-cell membrane resistance [20]; (4) alkaline phosphatase activities at the top and the basal side of the cell membrane were detected respectively to preliminarily determine the polarity of it.
(§5) The Papp formula of fluorescence is as follows:(2) Papp=dQ/dt/A×C0 where: C0—Initial concentration of fluorescent yellow (mg/mL); A—Membrane surface area (cm^2); dQ/dt—Transport of fluorescent yellow per unit time; Papp—Apparent permeability coefficient.

[7] = test system: Caco-2 cell monolayer; assay: Integrity of peptides after passing the Caco-2 monolayer (RP-HPLC, LC-MS/MS); assay type: in vitro ADME, human; details: for integrity of the peptide after passing through the Caco-2 cell membrane: RP-HPLC and LC/MS of BL-side liquid; for Concentration (ppm): peptide and fragments found by LC-MS in the liquid that passed the membrane, parents RYPLGYL, KHPIK, FFSDK
[8] = in vitro; details: human, Caco-2, pH 7.4
Protocol: as §3, §4, §5

[9] = test system: Caco-2 cell monolayer
Protocol: as §3, §4, §5

T2 sequence (Q92887 whole entry): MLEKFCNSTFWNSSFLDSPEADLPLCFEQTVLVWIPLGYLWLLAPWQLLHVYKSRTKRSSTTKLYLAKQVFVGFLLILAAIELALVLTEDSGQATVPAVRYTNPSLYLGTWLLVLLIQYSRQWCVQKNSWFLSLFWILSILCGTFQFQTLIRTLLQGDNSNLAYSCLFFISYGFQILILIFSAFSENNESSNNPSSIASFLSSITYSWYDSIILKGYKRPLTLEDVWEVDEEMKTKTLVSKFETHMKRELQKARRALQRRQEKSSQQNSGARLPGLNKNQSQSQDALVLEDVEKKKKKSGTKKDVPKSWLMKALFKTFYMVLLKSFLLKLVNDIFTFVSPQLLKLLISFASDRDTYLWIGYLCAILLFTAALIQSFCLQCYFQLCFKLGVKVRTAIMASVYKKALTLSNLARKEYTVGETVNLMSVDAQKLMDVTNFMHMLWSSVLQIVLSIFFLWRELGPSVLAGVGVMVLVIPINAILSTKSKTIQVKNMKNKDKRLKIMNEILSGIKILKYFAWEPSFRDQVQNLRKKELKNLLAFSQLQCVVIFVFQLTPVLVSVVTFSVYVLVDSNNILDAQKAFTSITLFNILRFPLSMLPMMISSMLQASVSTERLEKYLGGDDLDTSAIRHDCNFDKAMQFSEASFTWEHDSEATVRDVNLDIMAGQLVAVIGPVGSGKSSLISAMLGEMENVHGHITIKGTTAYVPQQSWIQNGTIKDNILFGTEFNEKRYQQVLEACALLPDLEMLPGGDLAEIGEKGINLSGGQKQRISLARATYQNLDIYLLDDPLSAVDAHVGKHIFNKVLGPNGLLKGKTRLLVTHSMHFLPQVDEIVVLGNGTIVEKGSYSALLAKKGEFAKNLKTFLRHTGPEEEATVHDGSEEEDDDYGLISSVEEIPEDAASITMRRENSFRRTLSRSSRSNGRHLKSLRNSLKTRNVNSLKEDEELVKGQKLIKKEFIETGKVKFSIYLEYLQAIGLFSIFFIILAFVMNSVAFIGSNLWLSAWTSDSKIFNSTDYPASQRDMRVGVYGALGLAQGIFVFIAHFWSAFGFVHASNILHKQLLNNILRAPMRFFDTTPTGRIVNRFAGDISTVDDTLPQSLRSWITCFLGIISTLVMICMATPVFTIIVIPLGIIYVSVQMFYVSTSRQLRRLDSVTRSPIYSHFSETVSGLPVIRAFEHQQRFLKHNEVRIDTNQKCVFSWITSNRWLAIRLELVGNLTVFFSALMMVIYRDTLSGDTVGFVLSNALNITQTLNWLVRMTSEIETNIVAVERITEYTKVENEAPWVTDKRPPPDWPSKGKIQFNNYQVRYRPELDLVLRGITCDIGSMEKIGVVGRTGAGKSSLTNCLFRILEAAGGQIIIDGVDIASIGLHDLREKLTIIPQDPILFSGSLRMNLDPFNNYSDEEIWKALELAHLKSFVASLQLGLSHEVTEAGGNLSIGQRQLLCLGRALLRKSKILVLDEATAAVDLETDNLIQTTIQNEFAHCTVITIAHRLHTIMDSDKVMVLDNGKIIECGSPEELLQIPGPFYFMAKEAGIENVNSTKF
T3 sequence (P08183 whole entry): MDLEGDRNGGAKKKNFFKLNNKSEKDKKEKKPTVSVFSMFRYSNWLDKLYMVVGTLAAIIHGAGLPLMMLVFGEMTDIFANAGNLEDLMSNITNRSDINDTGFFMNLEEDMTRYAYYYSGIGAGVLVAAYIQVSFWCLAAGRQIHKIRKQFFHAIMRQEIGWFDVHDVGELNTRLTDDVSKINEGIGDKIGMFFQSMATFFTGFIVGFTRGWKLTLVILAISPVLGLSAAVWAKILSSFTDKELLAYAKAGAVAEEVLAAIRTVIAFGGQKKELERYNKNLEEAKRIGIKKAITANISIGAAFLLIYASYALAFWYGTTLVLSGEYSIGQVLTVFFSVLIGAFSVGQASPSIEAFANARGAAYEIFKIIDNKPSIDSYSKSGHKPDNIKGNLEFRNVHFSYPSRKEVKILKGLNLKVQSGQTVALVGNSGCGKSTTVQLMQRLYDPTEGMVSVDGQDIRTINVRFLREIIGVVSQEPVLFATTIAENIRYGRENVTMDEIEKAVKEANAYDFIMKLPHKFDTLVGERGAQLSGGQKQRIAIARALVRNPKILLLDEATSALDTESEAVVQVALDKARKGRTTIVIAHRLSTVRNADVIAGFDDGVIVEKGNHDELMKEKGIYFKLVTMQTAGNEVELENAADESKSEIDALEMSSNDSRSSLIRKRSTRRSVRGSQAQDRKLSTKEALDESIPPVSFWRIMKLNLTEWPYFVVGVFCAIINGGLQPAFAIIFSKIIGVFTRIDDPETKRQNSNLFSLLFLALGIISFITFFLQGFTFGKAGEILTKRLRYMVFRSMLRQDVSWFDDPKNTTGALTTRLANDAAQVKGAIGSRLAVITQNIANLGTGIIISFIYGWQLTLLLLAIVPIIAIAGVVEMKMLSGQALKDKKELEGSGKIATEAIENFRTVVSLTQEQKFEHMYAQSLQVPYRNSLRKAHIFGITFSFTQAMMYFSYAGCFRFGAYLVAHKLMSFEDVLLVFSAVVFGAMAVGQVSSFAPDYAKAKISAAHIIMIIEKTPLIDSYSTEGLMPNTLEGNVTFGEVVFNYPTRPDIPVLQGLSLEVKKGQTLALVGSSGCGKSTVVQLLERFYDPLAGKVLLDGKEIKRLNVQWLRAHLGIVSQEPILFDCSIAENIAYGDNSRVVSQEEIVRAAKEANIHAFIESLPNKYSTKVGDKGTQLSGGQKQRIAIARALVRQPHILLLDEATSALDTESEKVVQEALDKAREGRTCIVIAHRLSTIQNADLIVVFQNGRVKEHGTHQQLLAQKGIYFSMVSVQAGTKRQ

Compound | main transport mechanism in intestinal epithelial cells [2] | integrity of the peptide after passing through the Caco-2 cell membrane [7] | Concentration (ppm) [7] | Papp A→B at 2 h, 5 mM [8] | also measured
N[C@@H](Cc1ccc(O)cc1)C(=O)NCC(=O)NCC(=O)O [YGG, Tyr-Gly-Gly] (H-Tyr-Gly-Gly-OH; N-terminus and C-terminus assumed) | – | – | – | – | effect of Gly-Pro on transport to the BL side [1]: no significant differences; main transport mechanism in intestinal epithelial cells ([2]; Caco-2 monolayer): bypass diffusion; effect of MK-571 sodium salt on transmembrane transport [3]: no significant differences; effect of verapamil on transmembrane transport [4]: significantly promote; effect of sodium azide on concentration on the BL side [5]: slightly higher
NNC(=O)NN1C(=O)c2cc(S(=O)(=O)[O-])cc3c(N)c(S(=O)(=O)[O-])cc(c23)C1=O.[Li+].[Li+] [fluorescence yellow] | – | – | – | – | Papp of fluorescence yellow ([6]; Caco-2 monolayer density check): 6.07e-07 cm/s; increase of transmittance ([6]; experimental group (Caco-2 monolayer), from 0.5 h to 2.5 h): 1.6%
FFSDK [FFSDK, Phe-Phe-Ser-Asp-Lys] | bypass diffusion | Most of the KHPIK and FFSDK were hydrolyzed into KHP and FFS | 2.59 ppm | 0.491 ×10⁻⁶ cm/s | –
KHPIK [KHPIK, Lys-His-Pro-Ile- Lys] | bypass diffusion | Most of the KHPIK and FFSDK were hydrolyzed into KHP and FFS | 2.59 ppm | 0.322 ×10⁻⁶ cm/s | amount across the membrane versus time ([9]; Caco-2): increased slowly; amount transported versus time ([9]; Caco-2): increased rapidly; transport quantity BL-AP side compared with AP-BL side ([9]; Caco-2): significantly lower; transmembrane transport capacity on the BL side ([9]; Caco-2, pH 6): 23.14 µM; transmembrane transport capacity on the BL side ([9]; Caco-2, pH 7): greater than 30.01 μM; transmembrane transport capacity on the BL side ([9]; Caco-2, pH 7.4): 44.35 µM
KHPIKH [KHPIKH, Lys-His-Pro-Ile-Lys-His] | bypass diffusion | – | – | 0.26 ×10⁻⁶ cm/s | –
RYPLGYL [RYPLGYL, Arg-Tyr-Pro-Leu-Gly-Tyr-Leu] | bypass diffusion | resistant to the enzymatic hydrolysis of intestinal epithelial cells | 10.74 ppm | 0.161 ×10⁻⁶ cm/s | –
